Numbers after ± are expanded uncertainties.
Conditions: Liquid; for mass density: Buoyancy - hydrostatic balance; for viscosity: Falling or rolling sphere viscometry

## CCCCCCC [heptane]
298.15 K, 98 kPa
  mass density: 679.99 ± 4.1 kg/m3
  viscosity: 0.396 ± 0.016 mPa·s
298.15 K, 24510 kPa
  mass density: 702.85 ± 4.2 kg/m3
  viscosity: 0.4923 ± 0.02 mPa·s
298.15 K, 49030 kPa
  mass density: 718.61 ± 4.3 kg/m3
  viscosity: 0.602 ± 0.025 mPa·s
298.15 K, 98060 kPa
  mass density: 741.52 ± 4.5 kg/m3
  viscosity: 0.8489 ± 0.034 mPa·s
298.15 K, 147100 kPa
  mass density: 760.47 ± 4.6 kg/m3
  viscosity: 1.137 ± 0.046 mPa·s
298.15 K, 196130 kPa
  mass density: 780.16 ± 4.7 kg/m3
  viscosity: 1.493 ± 0.061 mPa·s
298.15 K, 245160 kPa
  mass density: 792.15 ± 4.8 kg/m3
  viscosity: 1.91 ± 0.078 mPa·s
303.15 K, 98 kPa
  mass density: 674.98 ± 4 kg/m3
  viscosity: 0.373 ± 0.015 mPa·s
303.15 K, 24510 kPa
  mass density: 697.11 ± 4.2 kg/m3
  viscosity: 0.4737 ± 0.019 mPa·s
303.15 K, 49030 kPa
  mass density: 713.79 ± 4.3 kg/m3
  viscosity: 0.5696 ± 0.023 mPa·s
303.15 K, 98060 kPa
  mass density: 739.05 ± 4.4 kg/m3
  viscosity: 0.8037 ± 0.033 mPa·s
303.15 K, 147100 kPa
  mass density: 759.49 ± 4.6 kg/m3
  viscosity: 1.071 ± 0.043 mPa·s
303.15 K, 196130 kPa
  mass density: 777.85 ± 4.7 kg/m3
  viscosity: 1.389 ± 0.056 mPa·s
303.15 K, 245160 kPa
  mass density: 789.56 ± 4.7 kg/m3
  viscosity: 1.744 ± 0.071 mPa·s
323.11 K, 49030 kPa
  mass density: 701.18 ± 4.2 kg/m3
  viscosity: 0.4816 ± 0.02 mPa·s
323.13 K, 24510 kPa
  mass density: 680.94 ± 4.1 kg/m3
  viscosity: 0.3966 ± 0.016 mPa·s
323.2 K, 98060 kPa
  mass density: 731.08 ± 4.4 kg/m3
  viscosity: 0.6613 ± 0.027 mPa·s
323.2 K, 147100 kPa
  mass density: 749.97 ± 4.5 kg/m3
  viscosity: 0.87 ± 0.035 mPa·s
323.21 K, 196130 kPa
  mass density: 768.38 ± 4.6 kg/m3
  viscosity: 1.112 ± 0.045 mPa·s
323.25 K, 98 kPa
  mass density: 659.16 ± 4 kg/m3
  viscosity: 0.3107 ± 0.013 mPa·s
323.25 K, 245160 kPa
  mass density: 783.33 ± 4.7 kg/m3
  viscosity: 1.378 ± 0.056 mPa·s
362.8 K, 147100 kPa
  mass density: 731.67 ± 4.4 kg/m3
  viscosity: 0.6488 ± 0.026 mPa·s
362.83 K, 98060 kPa
  mass density: 709.5 ± 4.3 kg/m3
  viscosity: 0.4956 ± 0.02 mPa·s
362.85 K, 49030 kPa
  mass density: 675.9 ± 4.1 kg/m3
  viscosity: 0.3626 ± 0.015 mPa·s
362.87 K, 196130 kPa
  mass density: 752.22 ± 4.5 kg/m3
  viscosity: 0.8089 ± 0.033 mPa·s
362.92 K, 98 kPa
  mass density: 622.63 ± 3.7 kg/m3
  viscosity: 0.2146 ± 0.0087 mPa·s
362.98 K, 245160 kPa
  mass density: 769.76 ± 4.6 kg/m3
  viscosity: 0.9926 ± 0.04 mPa·s
363.07 K, 24510 kPa
  mass density: 654.31 ± 3.9 kg/m3
  viscosity: 0.2937 ± 0.012 mPa·s
391.93 K, 147100 kPa
  mass density: 717.73 ± 4.3 kg/m3
  viscosity: 0.531 ± 0.022 mPa·s
392 K, 196130 kPa
  mass density: 739.92 ± 4.4 kg/m3
  viscosity: 0.6621 ± 0.027 mPa·s
392 K, 245160 kPa
  mass density: 759.27 ± 4.6 kg/m3
  viscosity: 0.8047 ± 0.033 mPa·s
392.04 K, 98060 kPa
  mass density: 696.22 ± 4.2 kg/m3
  viscosity: 0.4119 ± 0.017 mPa·s
393.01 K, 24510 kPa
  mass density: 634.69 ± 3.8 kg/m3
  viscosity: 0.2366 ± 0.0096 mPa·s
393.14 K, 49030 kPa
  mass density: 657.93 ± 4 kg/m3
  viscosity: 0.2965 ± 0.012 mPa·s
422.17 K, 196130 kPa
  mass density: 729 ± 4.4 kg/m3
  viscosity: 0.5591 ± 0.023 mPa·s
422.24 K, 98060 kPa
  mass density: 679.62 ± 4.1 kg/m3
  viscosity: 0.3479 ± 0.014 mPa·s
422.26 K, 147100 kPa
  mass density: 704.75 ± 4.2 kg/m3
  viscosity: 0.4464 ± 0.018 mPa·s
422.58 K, 24510 kPa
  mass density: 611.28 ± 3.7 kg/m3
  viscosity: 0.1951 ± 0.0079 mPa·s
422.6 K, 49030 kPa
  mass density: 638.89 ± 3.8 kg/m3
  viscosity: 0.2476 ± 0.01 mPa·s
423.04 K, 245160 kPa
  mass density: 748.46 ± 4.5 kg/m3
  viscosity: 0.6699 ± 0.027 mPa·s
452.91 K, 245160 kPa
  mass density: 734.45 ± 4.4 kg/m3
  viscosity: 0.577 ± 0.024 mPa·s
453.04 K, 196130 kPa
  mass density: 716.18 ± 4.3 kg/m3
  viscosity: 0.4784 ± 0.019 mPa·s
453.1 K, 147100 kPa
  mass density: 689.71 ± 4.1 kg/m3
  viscosity: 0.3883 ± 0.016 mPa·s
453.16 K, 98060 kPa
  mass density: 666.38 ± 4 kg/m3
  viscosity: 0.3007 ± 0.012 mPa·s
453.24 K, 49030 kPa
  mass density: 621.56 ± 3.7 kg/m3
  viscosity: 0.2134 ± 0.0087 mPa·s
453.4 K, 24510 kPa
  mass density: 589.05 ± 3.5 kg/m3
  viscosity: 0.1668 ± 0.0068 mPa·s
470.1 K, 49030 kPa
  mass density: 611.78 ± 3.7 kg/m3
  viscosity: 0.2021 ± 0.0082 mPa·s
470.19 K, 24510 kPa
  mass density: 574.55 ± 3.5 kg/m3
  viscosity: 0.1568 ± 0.0064 mPa·s
470.19 K, 98060 kPa
  mass density: 658.7 ± 4 kg/m3
  viscosity: 0.2858 ± 0.012 mPa·s
470.19 K, 147100 kPa
  mass density: 685.13 ± 4.1 kg/m3
  viscosity: 0.3672 ± 0.015 mPa·s
470.57 K, 196130 kPa
  mass density: 709.79 ± 4.3 kg/m3
  viscosity: 0.4549 ± 0.018 mPa·s
470.61 K, 245160 kPa
  mass density: 729.17 ± 4.4 kg/m3
  viscosity: 0.5475 ± 0.022 mPa·s

From the NIST ThermoML archive (doi:10.1007/s10765-012-1373-z)
